Earlier results in patent US20110142757A1, “NOVEL COMPOUNDS AND THEIR USES IN DIAGNOSIS” (the University of Sydney, priority 2008, published 2011).

Test system: activated microglia
Settings: quinolinic acid-injected rat striatum

CCC(C)N(C)C(=O)c1cc2ccccc2c(-c2ccccc2Cl)n1 (stereo not shown) [PK11195]
Microglial activation and neuronal death: reduces microglial activation and neuronal death
